Target: T1, AtCKA1 (Arabidopsis thaliana, UniProt Q08467)
T1 sequence (Q08467 76-409): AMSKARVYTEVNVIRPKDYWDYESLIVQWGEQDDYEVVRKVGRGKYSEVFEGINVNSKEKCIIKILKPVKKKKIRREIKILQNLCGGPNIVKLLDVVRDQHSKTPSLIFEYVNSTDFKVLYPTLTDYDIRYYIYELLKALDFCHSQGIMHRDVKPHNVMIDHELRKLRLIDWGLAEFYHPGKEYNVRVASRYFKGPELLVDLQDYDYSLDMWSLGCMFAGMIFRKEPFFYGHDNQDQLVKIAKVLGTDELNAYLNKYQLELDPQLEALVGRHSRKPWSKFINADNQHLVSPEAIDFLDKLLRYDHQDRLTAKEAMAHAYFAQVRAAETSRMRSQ
Test: biochemical

In the case of `O=P(O)(O)O[C@H]1[C@H](OP(=O)(O)O)[C@@H](OP(=O)(O)O)[C@H](OP(=O)(O)O)[C@@H](OP(=O)(O)O)[C@H]1OP(=O)(O)O` [InsP6], the Kd is reported as 2000 nM.

From paper doi:10.1101/2025.11.27.691040v1 (biorxiv, 2025)
